{"source": "the supplement of paper PMC10307832", "test_in_all_cases": "relative viability (nuclei count vs DMSO), 5 days (fraction); higher = more cells survive", "key": {"ABC-1": {"system": "ABC-1", "procedure,_shortened": "(§1)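 Relative viability was taken as the ratio of nuclei in treated wells to nuclei in vehicle wells. Lung cancer cell lines in 1536-well plates received compounds by pin tool one day after seeding, either one drug alone or a fixed anchor-drug dose plus five library-drug doses (not always all listed) in √10 steps. Nuclei were counted on 4× images after 5 days of treatment, and values are medians of duplicate plates.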"}, "CAL-12T": {"system": "CAL-12T", "procedure,_shortened": "as §1"}, "HCC-366": {"system": "HCC-366", "procedure,_shortened": "as §1"}, "HCC-78": {"system": "HCC-78", "procedure,_shortened": "as §1"}, "LC-2-ad": {"system": "LC-2-ad", "procedure,_shortened": "as §1"}, "LOU-NH91": {"system": "LOU-NH91", "procedure,_shortened": "as §1"}, "LU99A": {"system": "LU99A", "procedure,_shortened": "as §1"}, "NCI-H1395": {"system": "NCI-H1395", "procedure,_shortened": "as §1"}, "NCI-H1651": {"system": "NCI-H1651", "procedure,_shortened": "as §1"}, "NCI-H1755": {"system": "NCI-H1755", "procedure,_shortened": "as §1"}, "NCI-H1793": {"system": "NCI-H1793", "procedure,_shortened": "as §1"}, "NCI-H1944": {"system": "NCI-H1944", "procedure,_shortened": "as §1"}, "NCI-H2087": {"system": "NCI-H2087", "procedure,_shortened": "as §1"}, "NCI-H2170": {"system": "NCI-H2170", "procedure,_shortened": "as §1"}, "NCI-H2228": {"system": "NCI-H2228", "procedure,_shortened": "as §1"}, "NCI-H2405": {"system": "NCI-H2405", "procedure,_shortened": "as §1"}, "NCI-H3122": {"system": "NCI-H3122", "procedure,_shortened": "as §1"}, "NCI-H460": {"system": "NCI-H460", "procedure,_shortened": "as §1"}, "PC-3 [JPC-3]": {"system": "PC-3 [JPC-3]", "procedure,_shortened": "as §1"}, "RERF-LC-KJ": {"system": "RERF-LC-KJ", "procedure,_shortened": "as §1"}, "UMC-11": {"system": "UMC-11", "procedure,_shortened": "as §1"}}}
{"smiles": "COc1nc(C)cnc1NS(=O)(=O)c1cccnc1-c1ccc(-c2nnco2)cc1", "note": "[Zibotentan] + CS(=O)(=O)CCNCc1ccc(-c2ccc3ncnc(Nc4ccc(OCc5cccc(F)c5)c(Cl)c4)c3c2)o1 [Lapatinib] (partner 2 µM)", "values": [{"measurement": "relative viability", "setting": "ABC-1; first compound 0.08 µM", "result": 1.28}, {"measurement": "relative viability", "setting": "ABC-1; first compound 0.253 µM", "result": 0.885}, {"measurement": "relative viability", "setting": "ABC-1; first compound 0.8 µM", "result": 0.971}, {"measurement": "relative viability", "setting": "ABC-1; first compound 2.53 µM", "result": 1.28}, {"measurement": "relative viability", "setting": "CAL-12T; first compound 0.08 µM", "result": 0.606}, {"measurement": "relative viability", "setting": "CAL-12T; first compound 0.8 µM", "result": 0.55}, {"measurement": "relative viability", "setting": "CAL-12T; first compound 2.53 µM", "result": 0.652}, {"measurement": "relative viability", "setting": "HCC-366; first compound 0.08 µM", "result": 1.17}, {"measurement": "relative viability", "setting": "HCC-366; first compound 0.253 µM", "result": 0.955}, {"measurement": "relative viability", "setting": "HCC-366; first compound 0.8 µM", "result": 0.653}, {"measurement": "relative viability", "setting": "HCC-366; first compound 2.53 µM", "result": 1.02}, {"measurement": "relative viability", "setting": "HCC-78; first compound 0.08 µM", "result": 0.844}, {"measurement": "relative viability", "setting": "HCC-78; first compound 0.253 µM", "result": 0.701}, {"measurement": "relative viability", "setting": "HCC-78; first compound 0.8 µM", "result": 0.847}, {"measurement": "relative viability", "setting": "HCC-78; first compound 2.53 µM", "result": 0.788}, {"measurement": "relative viability", "setting": "LC-2-ad; first compound 0.08 µM", "result": 0.962}, {"measurement": "relative viability", "setting": "LC-2-ad; first compound 0.253 µM", "result": 0.944}, {"measurement": "relative viability", "setting": "LC-2-ad; first compound 0.8 µM", "result": 1.06}, {"measurement": "relative viability", "setting": "LC-2-ad; first compound 2.53 µM", "result": 1.01}, {"measurement": "relative viability", "setting": "LOU-NH91; first compound 0.08 µM", "result": 0.835}, {"measurement": "relative viability", "setting": "LOU-NH91; first compound 0.253 µM", "result": 0.662}, {"measurement": "relative viability", "setting": "LOU-NH91; first compound 0.8 µM", "result": 0.771}, {"measurement": "relative viability", "setting": "LOU-NH91; first compound 2.53 µM", "result": 0.782}, {"measurement": "relative viability", "setting": "LU99A; first compound 0.08 µM", "result": 1.02}, {"measurement": "relative viability", "setting": "LU99A; first compound 0.253 µM", "result": 1.01}, {"measurement": "relative viability", "setting": "LU99A; first compound 0.8 µM", "result": 1.05}, {"measurement": "relative viability", "setting": "LU99A; first compound 2.53 µM", "result": 0.949}, {"measurement": "relative viability", "setting": "NCI-H1395; first compound 0.08 µM", "result": 1.08}, {"measurement": "relative viability", "setting": "NCI-H1395; first compound 0.253 µM", "result": 0.883}, {"measurement": "relative viability", "setting": "NCI-H1395; first compound 0.8 µM", "result": 0.952}, {"measurement": "relative viability", "setting": "NCI-H1395; first compound 2.53 µM", "result": 1.08}, {"measurement": "relative viability", "setting": "NCI-H1651; first compound 0.08 µM", "result": 0.935}, {"measurement": "relative viability", "setting": "NCI-H1651; first compound 0.253 µM", "result": 0.366}, {"measurement": "relative viability", "setting": "NCI-H1651; first compound 0.8 µM", "result": 0.747}, {"measurement": "relative viability", "setting": "NCI-H1651; first compound 2.53 µM", "result": 0.854}, {"measurement": "relative viability", "setting": "NCI-H1755; first compound 0.08 µM", "result": 1.06}, {"measurement": "relative viability", "setting": "NCI-H1755; first compound 0.253 µM", "result": 0.988}, {"measurement": "relative viability", "setting": "NCI-H1755; first compound 0.8 µM", "result": 1.08}, {"measurement": "relative viability", "setting": "NCI-H1755; first compound 2.53 µM", "result": 1.05}, {"measurement": "relative viability", "setting": "NCI-H1793; first compound 0.08 µM", "result": 0.903}, {"measurement": "relative viability", "setting": "NCI-H1793; first compound 0.253 µM", "result": 0.645}, {"measurement": "relative viability", "setting": "NCI-H1793; first compound 0.8 µM", "result": 0.596}, {"measurement": "relative viability", "setting": "NCI-H1793; first compound 2.53 µM", "result": 0.938}, {"measurement": "relative viability", "setting": "NCI-H1944; first compound 0.08 µM", "result": 1.06}, {"measurement": "relative viability", "setting": "NCI-H1944; first compound 0.253 µM", "result": 0.7}, {"measurement": "relative viability", "setting": "NCI-H1944; first compound 0.8 µM", "result": 0.747}, {"measurement": "relative viability", "setting": "NCI-H1944; first compound 2.53 µM", "result": 0.762}, {"measurement": "relative viability", "setting": "NCI-H2087; first compound 0.08 µM", "result": 1.17}, {"measurement": "relative viability", "setting": "NCI-H2087; first compound 0.253 µM", "result": 0.955}, {"measurement": "relative viability", "setting": "NCI-H2087; first compound 0.8 µM", "result": 1.06}, {"measurement": "relative viability", "setting": "NCI-H2087; first compound 2.53 µM", "result": 1.09}, {"measurement": "relative viability", "setting": "NCI-H2170; first compound 0.08 µM", "result": 0.27}, {"measurement": "relative viability", "setting": "NCI-H2170; first compound 0.253 µM", "result": 0.264}, {"measurement": "relative viability", "setting": "NCI-H2170; first compound 0.8 µM", "result": 0.251}, {"measurement": "relative viability", "setting": "NCI-H2170; first compound 2.53 µM", "result": 0.285}, {"measurement": "relative viability", "setting": "NCI-H2228; first compound 0.08 µM", "result": 1.41}, {"measurement": "relative viability", "setting": "NCI-H2228; first compound 0.253 µM", "result": 1}, {"measurement": "relative viability", "setting": "NCI-H2228; first compound 0.8 µM", "result": 0.989}, {"measurement": "relative viability", "setting": "NCI-H2228; first compound 2.53 µM", "result": 1.1}, {"measurement": "relative viability", "setting": "NCI-H2405; first compound 0.08 µM", "result": 1.18}, {"measurement": "relative viability", "setting": "NCI-H2405; first compound 0.253 µM", "result": 0.84}, {"measurement": "relative viability", "setting": "NCI-H2405; first compound 0.8 µM", "result": 1.06}, {"measurement": "relative viability", "setting": "NCI-H2405; first compound 2.53 µM", "result": 1.09}, {"measurement": "relative viability", "setting": "NCI-H3122; first compound 0.08 µM", "result": 0.99}, {"measurement": "relative viability", "setting": "NCI-H3122; first compound 0.253 µM", "result": 1.03}, {"measurement": "relative viability", "setting": "NCI-H3122; first compound 0.8 µM", "result": 1.03}, {"measurement": "relative viability", "setting": "NCI-H3122; first compound 2.53 µM", "result": 1.01}, {"measurement": "relative viability", "setting": "NCI-H460; first compound 0.08 µM", "result": 1.04}, {"measurement": "relative viability", "setting": "NCI-H460; first compound 0.8 µM", "result": 1.03}, {"measurement": "relative viability", "setting": "NCI-H460; first compound 2.53 µM", "result": 1.12}, {"measurement": "relative viability", "setting": "PC-3 [JPC-3]; first compound 0.08 µM", "result": 0.444}, {"measurement": "relative viability", "setting": "PC-3 [JPC-3]; first compound 0.253 µM", "result": 0.458}, {"measurement": "relative viability", "setting": "PC-3 [JPC-3]; first compound 0.8 µM", "result": 0.421}, {"measurement": "relative viability", "setting": "PC-3 [JPC-3]; first compound 2.53 µM", "result": 0.48}, {"measurement": "relative viability", "setting": "RERF-LC-KJ; first compound 0.08 µM", "result": 0.89}, {"measurement": "relative viability", "setting": "RERF-LC-KJ; first compound 0.253 µM", "result": 0.807}, {"measurement": "relative viability", "setting": "RERF-LC-KJ; first compound 0.8 µM", "result": 0.878}, {"measurement": "relative viability", "setting": "RERF-LC-KJ; first compound 2.53 µM", "result": 0.845}, {"measurement": "relative viability", "setting": "UMC-11; first compound 0.08 µM", "result": 0.919}, {"measurement": "relative viability", "setting": "UMC-11; first compound 0.253 µM", "result": 0.86}, {"measurement": "relative viability", "setting": "UMC-11; first compound 0.8 µM", "result": 0.967}, {"measurement": "relative viability", "setting": "UMC-11; first compound 2.53 µM", "result": 1.06}]}
